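Values below derive from 48-hour exposures of cells grown in 96-well plates, with endpoints linearly interpolated between the two concentrations bracketing the appropriate inhibition level. Here, GI50 denotes the concentration required for 50% inhibition of growth. At the TGI there is no net growth.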
What was measured:
Experiment in all cases: NCI anticancer screen, dose series, 48 h
[1] = test system: M14 melanoma
[2] = test system: NCI-H460 lung
[3] = test system: RXF 393 renal
[4] = test system: KM12 colon
[5] = test system: NCI-H226 lung
[6] = test system: EKVX NSCLC
[7] = test system: MDA-MB-231 breast
[8] = test system: MDA-MB-435
[9] = test system: MDA-N
[10] = test system: NCI/ADR-RES ovarian

SMILES	TGI [1] [µM]	TGI [2] [µM]	TGI [3] [µM]	TGI [4] [µM]	TGI [5] [µM]	GI50 [2] [µM]	GI50 [3] [µM]	GI50 [6] [µM]	TGI [6] [µM]	GI50 [7] [µM]	TGI [7] [µM]	GI50 [8] [µM]	TGI [8] [µM]	GI50 [4] [µM]	GI50 [5] [µM]	TGI [9] [µM]	TGI [10] [µM]	GI50 [1] [µM]	GI50 [10] [µM]
CN(C(=O)c1ccco1)C(=S)N1CCN(c2ccccc2)CC1	> 100	> 100	> 100	> 100	> 100	–	–	–	–	–	–	–	–	–	–	–	–	–	–
C[C@@H]1CC[C@H]2C(C(O)CCCCC(O)C3=C(C(F)(F)F)O[C@@H]4O[C@@]5(C)CC[C@H]6[C@H](C)CC[C@@H]3[C@@]46OO5)=C(C(F)(F)F)O[C@@H]3O[C@@]4(C)CC[C@@H]1[C@]32OO4 (some centres undefined)	–	> 100	> 100	> 100	> 100	15.3	9.06	31.9	> 100	16.2	> 100	10.5	> 100	4.71	33.6	–	–	–	–
COc1ccc2nc3cc([N+](=O)[O-])ccc3c(Nc3ccc(S(=O)(=O)NC(C)=O)cc3)c2c1	> 100	> 100	> 100	–	> 100	–	–	–	> 100	–	> 100	–	> 100	–	–	> 100	–	–	–
COc1ccc(C)cc1Nc1nnc(-c2ccccc2N)s1	> 100	> 100	> 100	> 100	> 100	–	–	–	90.5	–	–	–	> 100	–	–	> 100	> 100	–	–
CSc1n[nH]c(N)c1C(=O)Nc1ccc(C)cc1	> 100	> 100	> 100	–	> 100	–	–	–	> 100	–	> 100	–	> 100	–	–	> 100	–	–	–
CCNC(=O)c1cc(/C=C/c2ccc([N+](=O)[O-])o2)nc2ccccc12	14.5	17.4	> 100	> 100	> 100	–	–	–	> 100	–	> 100	–	12.6	–	–	–	> 100	–	–
CN(C)c1nc2oc(-c3ccccc3)c(-c3ccccc3)c2c2nnnn12	> 100	–	> 100	> 100	> 100	–	–	–	> 100	–	> 100	–	> 100	–	–	–	> 100	–	–
O=c1c2cc(I)ccc2nc(-c2cccs2)n1-c1ccc(O)cc1	29.3	52.6	30.8	25.1	35.9	–	–	–	33.4	–	–	–	30.8	–	–	62.8	56.2	–	–
COc1ccc(-n2c(=O)n(C)c(=O)n2-c2ccc(OC)cc2)cc1	> 100	> 100	–	> 100	> 100	–	–	–	> 100	–	> 100	–	> 100	–	–	> 100	> 100	–	–
COc1ccc(C(=O)/C=C/c2c(Cl)c3c(c(OC)c2Cl)OCC(=O)N3)cc1	5.12	–	3.54	–	> 100	–	1.79	–	–	–	–	–	–	–	7.08	–	7.08	2.03	2.62
CCOC(=O)c1cc2c3c(c(C(C)=O)c(O)c2[nH]1)N(CC(C)CC)CC3 (centres undefined)	–	> 100	> 100	> 100	> 100	–	–	–	> 100	–	> 100	–	> 100	–	–	> 100	> 100	–	–
Cc1c2c(n(CCc3ccc(Cl)cc3)c1C)NC(c1ccccc1)C(C#N)S2(=O)=O (centres undefined)	> 100	> 100	–	> 100	> 100	–	–	–	> 100	–	> 59.3	–	> 66.9	–	–	> 74.9	> 100	–	–
c1ccc2c(c1)CCc1c-2n(CCN2CCOCC2)c2ccccc12	> 100	92.9	–	27.3	> 100	–	–	–	> 100	–	> 100	–	> 100	–	–	> 100	> 100	–	–
O=c1ccn(CC2(CO)CC(Cc3ccccc3)C2)c(=O)[nH]1 (centres undefined)	–	> 100	> 100	> 100	> 100	–	–	–	> 100	–	> 100	–	> 100	–	–	> 100	> 100	–	–
C/C(Nc1ccc(F)cc1)=C1/CCOC1=O	–	> 100	> 100	> 100	> 100	–	–	–	> 100	–	> 100	–	> 100	–	–	–	> 100	–	–
C(CCCCc1nnc(N2CCCCC2)o1)CCCc1nnc(N2CCCCC2)o1	> 100	> 100	> 100	> 100	> 100	–	–	–	> 100	–	> 100	–	> 100	–	–	–	> 100	–	–
S=C1SCN(Cc2ccco2)CN1c1ccc(Br)cc1	29	28.5	> 100	31.7	69.1	–	–	–	64.6	–	–	–	36	–	–	94.8	77.6	–	–
Cc1ccc2c(c1C)C(=O)/C(=C/c1ccccc1C(=O)O)C2	> 100	> 100	> 100	> 100	> 100	–	–	–	> 100	–	–	–	> 100	–	–	> 100	> 100	–	–
Oc1c([Si](c2ccccc2)(c2ccccc2)c2ccccc2)cc2ccccc2c1-c1c(O)c([Si](c2ccccc2)(c2ccccc2)c2ccccc2)cc2ccccc12	> 100	> 100	> 100	> 100	–	–	–	–	> 100	–	> 100	–	> 100	–	–	> 100	> 100	–	–
CC(C)(Oc1ccc(Cl)cc1)C(=O)N(C(=O)N1CCC(c2ccccc2)CC1)c1ccccc1	> 100	> 100	> 100	> 100	> 100	–	–	–	> 100	–	> 100	–	> 100	–	–	–	> 100	–	–
COc1cc(/C=C2/C[C@H]3[C@@H]4CC=C5C[C@@H](OC(C)=O)CC[C@]5(C)[C@H]4CC[C@]3(C)NC2=O)cc(OC)c1OC	> 100	> 100	39.4	> 100	–	–	–	–	68.3	–	62.5	–	> 100	–	–	> 100	54.4	–	–
COc1ccc(-c2cc(-c3ccc(Nc4ccnc5cc(Cl)ccc45)cc3)[nH]c(=O)c2C#N)c2ccccc12	4.93	> 100	28.3	> 100	> 100	–	–	–	> 100	–	51.1	–	–	–	–	6.02	> 100	–	–

— PubChem BioAssay (NCI)
